Test results published in EP4786466A1, “QUINAZOLINE DERIVATIVE, SALT THEREOF, AND PHARMACEUTICAL COMPOSITION COMPRISING SAME AS ACTIVE INGREDIENT” (Korea Research Institute of Chemical Technology, priority 2023, dated 2025).
Like-named read-outs stand apart in the source and are kept apart here.

Columns and labels:
[1] = molecular target: T1, Recombinant GST-TAG-MASTL (Homo sapiens, UniProt Q96GX5); assay: HTRF-based kinase assay (HTRF KinEASE assay kit); format: biochemical; settings: for activity at 1 µM: read-out: MASTL activity (%) HTRF (1 µM)
T1 construct: GST; purchased Thermo Fisher Scientific
T1 sequence (Q96GX5 1-879): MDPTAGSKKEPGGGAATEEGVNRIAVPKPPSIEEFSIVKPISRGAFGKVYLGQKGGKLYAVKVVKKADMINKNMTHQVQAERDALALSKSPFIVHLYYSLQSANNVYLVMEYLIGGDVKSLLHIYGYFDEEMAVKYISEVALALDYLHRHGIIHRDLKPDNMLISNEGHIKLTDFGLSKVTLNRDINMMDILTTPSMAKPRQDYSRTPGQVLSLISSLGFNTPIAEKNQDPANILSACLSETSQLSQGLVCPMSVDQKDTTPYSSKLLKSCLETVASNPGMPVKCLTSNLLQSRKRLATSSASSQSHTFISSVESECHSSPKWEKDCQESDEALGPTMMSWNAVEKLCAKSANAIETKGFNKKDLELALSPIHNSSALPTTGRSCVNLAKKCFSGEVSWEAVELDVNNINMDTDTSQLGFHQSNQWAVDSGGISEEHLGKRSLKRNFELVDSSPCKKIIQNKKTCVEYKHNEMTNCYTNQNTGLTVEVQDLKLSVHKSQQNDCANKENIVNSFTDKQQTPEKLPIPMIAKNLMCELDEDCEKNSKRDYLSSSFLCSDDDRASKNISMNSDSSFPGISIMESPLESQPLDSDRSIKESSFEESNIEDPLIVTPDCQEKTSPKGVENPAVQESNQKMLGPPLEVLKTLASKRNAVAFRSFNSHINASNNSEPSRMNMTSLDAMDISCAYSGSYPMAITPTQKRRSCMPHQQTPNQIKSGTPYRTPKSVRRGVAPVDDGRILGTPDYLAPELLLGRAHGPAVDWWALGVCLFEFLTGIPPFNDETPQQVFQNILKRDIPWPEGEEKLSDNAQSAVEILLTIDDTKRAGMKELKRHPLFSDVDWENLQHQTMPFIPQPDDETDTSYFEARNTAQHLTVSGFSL
Description: Recombinant GST-TAG-MASTL (Thermo Fisher Scientific, MA, USA) was used for HTRF-based kinase assays. The HTRF KinEASE assay kit (CisBio, MA, USA) was used according to the manufacturer's instructions.

pENSA = pENSA level by immunofluorescence (described method: in vitro kinase analysis with GST-tag-MASTL and His-tag-ENSA); format: cell-based; settings: for pENSA (%) Immunofluor ecense (1 µM): compound 1 µM; for IC50: read-out: IC50(nM) pENSA
Procedure, shortened: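 In vitro kinase reaction using recombinant GST-tagged MASTL with His-tagged ENSA as substrate; phosphorylated ENSA (pENSA) serves as read-out of MASTL activity. Cell lines named: MCF7 breast cancer and MCF10A.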

in vitro = settings: human, mcf10a cells
Description: (§1) MCF7 breast cancer cell lines and MCF10A normal breast cancer cell lines were treated with serial dilutions of the compounds of the present invention ranging from 1 µM to 15.63 nM for 72 hours. Cell viability was measured by the WST-8 assay (Cyto XTM cell viability assay kit; LPS solution, Daejeon, Korea) according to the manufacturer's instructions.

[2] = tested on: MCF7 breast cancer cell lines; assay: Cell viability analysis, WST-8 assay, MCF7; settings: for viability at 1.25 µM / IC50 / viability at 1 µM: Homo sapiens, MCF7, 72 h; for viability at 1.25 µM: read-out: Cell viability (%) WST-8, MCF7, footnote a: concentration 1.25 µM, 72 hours; for viability at 1 µM: read-out: Cell viability (%) WST-8, MCF7 (1 µM), compound 1 µM, 72 hours
Description: as §1

[3] = footnote b: concentration 10 µM, read-out: MASTL activity (%) HTRF
[4] = read-out: IC50 Cell viability (MCF7)
[5] = HTRF, read-out: IC50(nM) MASTL activity

SMILES: CS(=O)(=O)Cc1ccc(Nc2nc(Nc3cc(C4CC4)[nH]n3)c3ccccc3n2)cc1 [compound 4f, M^4-(5-cyclopropyl-1G-pyrazol-3-yl)-M^2-(4-((methylsulfonyl)methyl)phenyl)quinazoline-2,4-diamine]
- activity at 10 µM [1, 3]: 29%
- pENSA (%) Immunofluor ecense (1 µM) (pENSA): 50.5%
- IC50 (pENSA): 899 nM
- viability at 1.25 µM (in vitro): 33%
- viability at 1.25 µM [2]: 94.5%
- IC50 [2, 4]: 2300 nM

SMILES: NS(=O)(=O)c1ccc(Nc2nc(Nc3cc(C4CC4)[nH]n3)c3ccccc3n2)cc1 [compound 4g, 4-((4-((5-cyclopropyl-1G-pyrazol-3-yl)amino)quinazolin-2-yl)amino)benzenesulfonamide]
- IC50 [1]: 189 nM
- activity at 10 µM ([1]; read-out: MASTL activity (%) HTRF): 18.6%
- pENSA (%) Immunofluor ecense (1 µM) (pENSA): 10.4%
- IC50 (pENSA): 344 nM
- viability at 1.25 µM (in vitro): 9.3%
- viability at 1.25 µM [2]: 85.3%
- IC50 [2, 4]: 2700 nM

SMILES: CN(C)S(=O)(=O)c1ccc(Nc2nc(Nc3cc(C4CC4)[nH]n3)c3ccccc3n2)cc1 [compound 4j, 4-((4-((5-cyclopropyl-1G-pyrazol-3-yl)amino)quinazolin-2-yl)amino)-M,M-dimethylbenzenesulfonamide]
- IC50 [1, 5]: 527 nM
- activity at 1.25 µM ([1]; footnote a: concentration 1.25 µM, read-out: MASTL activity (%) HTRF): 27%
- pENSA (%) Immunofluor ecense (1 µM) (pENSA): 5.2%
- IC50 (pENSA): 420 nM
- viability at 1.25 µM (in vitro): 21.6%
- viability at 1.25 µM [2]: 22.8%
- IC50 ([2]; read-out: IC50(nM) Cell viability (MCF7)): 713 nM
- selectivity for breast cancer cells over normal cells in the cell viability assay ([2]; MCF7 versus MCF10A): selectively inhibit only breast cancer cells

SMILES: FC(F)(F)c1cc(Nc2nc(Nc3cc(C4CC4)[nH]n3)c3ccccc3n2)ccc1Cl [compound 4k, M^2-(4-chloro-3-(trifluoromethyl)phenyl)-M^4-(5-cyclopropyl-1G-pyrazol-3-yl)quinazoline-2,4-diamine]
- activity at 10 µM [1, 3]: 59.2%
- pENSA (%) Immunofluor ecense (1 µM) (pENSA): 105%
- viability at 1.25 µM (in vitro): 115%
- viability at 1.25 µM [2]: 80.8%

SMILES: Cc1ccc(-c2nc3ccccc3s2)cc1Nc1nc(Nc2cc(C3CC3)[nH]n2)c2ccccc2n1 [compound 4l, M^2-(5-(benzo[c]thiazol-2-yl)-2-methylphenyl)-M^4-(5-cyclopropyl-1G-pyrazol-3-yl)quinazoline-2,4-diamine]
- activity at 1 µM ([1]; compound 1 µM): 81.5%
- pENSA (%) Immunofluor ecense (1 µM) (pENSA): 88.6%
- viability at 1 µM (in vitro): 118%
- viability at 1 µM [2]: 100%

SMILES: c1ccc2sc(-c3ccc(Nc4nc(Nc5cc(C6CC6)[nH]n5)c5ccccc5n4)cc3)nc2c1 [compound 4m, M^2-(4-(benzo[c]thiazol-2-yl)phenyl)-M^4-(5-cyclopropyl-1G-pyrazol-3-yl)quinazoline-2,4-diamine]
- activity at 1 µM ([1]; compound 1 µM): 73%
- pENSA (%) Immunofluor ecense (1 µM) (pENSA): 88.8%
- viability at 1 µM (in vitro): 85.8%
- viability at 1 µM [2]: 110%

SMILES: COC(=O)c1ccc(Nc2nc(Nc3cc(C4CC4)[nH]n3)c3ccccc3n2)cc1 [compound 4o, Methyl 4-((4-((5-cyclopropyl-1G-pyrazol-3-yl)amino)quinazolin-2-yl)amino)benzoate]
- activity at 1 µM ([1]; compound 1 µM): 53.8%
- pENSA (%) Immunofluor ecense (1 µM) (pENSA): 19.2%
- IC50 (pENSA): 680 nM
- viability at 1 µM (in vitro): 79.4%
- viability at 1 µM [2]: 53.4%

SMILES: CC(C)(C)OC(=O)c1ccc(Nc2nc(Nc3cc(C4CC4)[nH]n3)c3ccccc3n2)cc1 [compound 4p, sdqs-butyl 4-((4-((5-cyclopropyl-1G-pyrazol-3-yl)amino)quinazolin-2-yl)amino)benzoate]
- activity at 1 µM ([1]; compound 1 µM): 58%
- pENSA (%) Immunofluor ecense (1 µM) (pENSA): 56.2%
- viability at 1 µM (in vitro): 86.8%
- viability at 1 µM [2]: 100%

SMILES: CC(C)(C)OC(=O)Cc1ccc(Nc2nc(Nc3cc(C4CC4)[nH]n3)c3ccccc3n2)cc1 [compound 4q, sdqs-butyl 2-(4-((4-((5-cyclopropyl-1G-pyrazol-3-yl)amino)quinazolin-2-yl)amino)phenyl)acetate]
- activity at 1 µM ([1]; compound 1 µM): 76.1%
- pENSA (%) Immunofluor ecense (1 µM) (pENSA): 53.6%
- viability at 1 µM (in vitro): 98.8%
- viability at 1 µM [2]: 107%

SMILES: O=C(O)c1ccc(Nc2nc(Nc3cc(C4CC4)[nH]n3)c3ccccc3n2)cc1 [compound 4r, 4-((4-((5-cyclopropyl-1G-pyrazol-3-yl)amino)quinazolin-2-yl)amino)benzoic acid]
- activity at 1 µM [1]: 56.6%
- pENSA (%) Immunofluor ecense (1 µM) (pENSA): 12%
- IC50 (pENSA): 988 nM
- viability at 1 µM (in vitro): 84.2%
- viability at 1 µM [2]: 98.8%

SMILES: CC(C)(C)OC(=O)N1CCC2(CC1)CCN(c1nc(Nc3cc(C4CC4)[nH]n3)c3ccccc3n1)CC2 [compound 6b, sdqs-butyl 9-(4-((5-cyclopropyl-1G-pyrazol-3-yl)amino)quinazolin-2-yl)-3,9-diazaspiro[5.5]undecane-3-carboxylate]
- activity at 1 µM ([1]; compound 1 µM): 43.5%
- pENSA (%) Immunofluor ecense (1 µM) (pENSA): 98.2%
- viability at 1 µM (in vitro): 122%
- viability at 1 µM [2]: 116%

SMILES: CC(C)(C)OC(=O)N1CC2(CCN(c3nc(Nc4cc(C5CC5)[nH]n4)c4ccccc4n3)CC2)C1 [compound 6c, sdqs-butyl 7-(4-((5-cyclopropyl-1G-pyrazol-3-yl)amino)quinazolin-2-yl)-2,7-diazaspiro[3.5]nonane-2-carboxylate]
- IC50 [1, 5]: 796 nM
- activity at 1 µM ([1]; compound 1 µM): 32.9%
- pENSA (%) Immunofluor ecense (1 µM) (pENSA): 90.5%
- viability at 1 µM (in vitro): 129%
- viability at 1 µM [2]: 109%

SMILES: C1=C(c2ccccc2)CCN(c2nc(Nc3cc(C4CC4)[nH]n3)c3ccccc3n2)C1 [compound 6e, M-(5-cyclopropyl-1G-pyrazol-3-yl)-2-(4-phenyl-3,6-dihydropyridin-1(2G)-yl)quinazolin-4-amine]
- IC50 [1, 5]: 569 nM
- activity at 1 µM ([1]; compound 1 µM): 43.3%
- pENSA (%) Immunofluor ecense (1 µM) (pENSA): 97%
- viability at 1 µM (in vitro): 91.4%
- viability at 1 µM [2]: 90.9%

SMILES: FC(F)(F)c1ccc(C2=CCN(c3nc(Nc4cc(C5CC5)[nH]n4)c4ccccc4n3)CC2)cc1 [compound 6f, M-(5-cyclopropyl-1G-pyrazol-3-yl)-2-(4-(4-(trifluoromethyl)phenyl)-3,6-dihydropyridin-1(2G)-yl)quinazolin-4-amine]
- activity at 1 µM ([1]; compound 1 µM): 55.8%
- pENSA (%) Immunofluor ecense (1 µM) (pENSA): 110%
- viability at 1 µM (in vitro): 102%
- viability at 1 µM [2]: 91.9%

SMILES: FC(F)(F)c1cccc(C2=CCN(c3nc(Nc4cc(C5CC5)[nH]n4)c4ccccc4n3)CC2)c1 [compound 6g, M-(5-cyclopropyl-1G-pyrazol-3-yl)-2-(4-(3-(trifluoromethyl)phenyl)-3,6-dihydropyridin-1(2G)-yl)quinazolin-4-amine]
- activity at 1 µM ([1]; compound 1 µM): 41.4%
- pENSA (%) Immunofluor ecense (1 µM) (pENSA): 113%
- viability at 1 µM (in vitro): 104%
- viability at 1 µM [2]: 95%

SMILES: C1=C(Cc2ccccc2)CCN(c2nc(Nc3cc(C4CC4)[nH]n3)c3ccccc3n2)C1 [compound 6h, 2-(4-benzyl-3,6-dihydropyridin-1(2G)-yl)-M-(5-cyclopropyl-1G-pyrazol-3-yl)quinazolin-4-amine]
- IC50 [1, 5]: 995 nM
- activity at 1 µM ([1]; compound 1 µM): 46%
- pENSA (%) Immunofluor ecense (1 µM) (pENSA): 93%
- viability at 1 µM (in vitro): 59.8%
- viability at 1 µM [2]: 89.7%

SMILES: C1=C(c2cccc3ccccc23)CCN(c2nc(Nc3cc(C4CC4)[nH]n3)c3ccccc3n2)C1 [compound 6i, M-(5-cyclopropyl-1G-pyrazol-3-yl)-2-(4-(naphthalen-1-yl)-3,6-dihydropyridin-1(2G)-yl)quinazolin-4-amine]
- activity at 1 µM ([1]; compound 1 µM): 74.6%
- pENSA (%) Immunofluor ecense (1 µM) (pENSA): 97.2%
- viability at 1 µM (in vitro): 122%
- viability at 1 µM [2]: 113%
